Assay results from BindingDB's records for doi:10.1124/jpet.105.084830 (University of Tokyo, 2005).

How the values were obtained:
[1] = target: T1, Bile salt export pump (Rattus norvegicus, UniProt O70127)
T1 sequence (O70127 whole entry): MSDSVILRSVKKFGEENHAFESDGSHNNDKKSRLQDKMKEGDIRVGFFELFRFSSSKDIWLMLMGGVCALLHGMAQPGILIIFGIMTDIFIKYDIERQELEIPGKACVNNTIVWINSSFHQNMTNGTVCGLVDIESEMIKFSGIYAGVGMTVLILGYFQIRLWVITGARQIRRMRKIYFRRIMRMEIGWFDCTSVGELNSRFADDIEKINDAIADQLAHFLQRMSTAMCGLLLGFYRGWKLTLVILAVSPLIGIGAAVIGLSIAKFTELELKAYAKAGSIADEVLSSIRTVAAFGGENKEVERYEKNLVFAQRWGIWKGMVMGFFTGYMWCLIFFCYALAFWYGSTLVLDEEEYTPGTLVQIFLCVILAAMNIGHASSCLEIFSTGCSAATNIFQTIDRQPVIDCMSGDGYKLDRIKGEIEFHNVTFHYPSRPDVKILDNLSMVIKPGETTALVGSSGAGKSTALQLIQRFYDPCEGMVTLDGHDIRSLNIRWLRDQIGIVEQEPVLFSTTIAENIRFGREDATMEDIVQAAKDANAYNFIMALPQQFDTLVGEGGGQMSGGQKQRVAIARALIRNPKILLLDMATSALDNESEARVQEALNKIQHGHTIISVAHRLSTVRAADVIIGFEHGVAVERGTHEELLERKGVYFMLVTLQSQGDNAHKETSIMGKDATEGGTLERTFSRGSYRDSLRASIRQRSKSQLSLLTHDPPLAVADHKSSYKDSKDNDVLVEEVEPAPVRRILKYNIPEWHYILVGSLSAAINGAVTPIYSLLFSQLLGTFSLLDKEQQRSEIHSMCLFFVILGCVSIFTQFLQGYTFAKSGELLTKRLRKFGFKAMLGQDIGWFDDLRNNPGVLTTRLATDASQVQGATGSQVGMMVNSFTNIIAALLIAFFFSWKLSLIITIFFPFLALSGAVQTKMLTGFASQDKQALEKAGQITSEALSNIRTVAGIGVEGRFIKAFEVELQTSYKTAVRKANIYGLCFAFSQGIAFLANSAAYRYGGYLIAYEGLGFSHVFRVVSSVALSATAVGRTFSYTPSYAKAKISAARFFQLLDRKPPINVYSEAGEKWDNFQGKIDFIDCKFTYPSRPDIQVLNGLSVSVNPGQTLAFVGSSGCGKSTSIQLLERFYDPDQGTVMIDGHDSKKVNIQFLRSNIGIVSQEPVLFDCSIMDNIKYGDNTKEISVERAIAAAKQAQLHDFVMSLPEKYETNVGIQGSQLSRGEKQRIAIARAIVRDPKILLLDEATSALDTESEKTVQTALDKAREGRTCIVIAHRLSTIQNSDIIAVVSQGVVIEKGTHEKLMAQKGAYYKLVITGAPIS

[2] = target: Bile salt export pump (Homo sapiens, UniProt O95342)
Chain of Bile salt export pump (Homo sapiens, UniProt O95342) (O95342 whole entry): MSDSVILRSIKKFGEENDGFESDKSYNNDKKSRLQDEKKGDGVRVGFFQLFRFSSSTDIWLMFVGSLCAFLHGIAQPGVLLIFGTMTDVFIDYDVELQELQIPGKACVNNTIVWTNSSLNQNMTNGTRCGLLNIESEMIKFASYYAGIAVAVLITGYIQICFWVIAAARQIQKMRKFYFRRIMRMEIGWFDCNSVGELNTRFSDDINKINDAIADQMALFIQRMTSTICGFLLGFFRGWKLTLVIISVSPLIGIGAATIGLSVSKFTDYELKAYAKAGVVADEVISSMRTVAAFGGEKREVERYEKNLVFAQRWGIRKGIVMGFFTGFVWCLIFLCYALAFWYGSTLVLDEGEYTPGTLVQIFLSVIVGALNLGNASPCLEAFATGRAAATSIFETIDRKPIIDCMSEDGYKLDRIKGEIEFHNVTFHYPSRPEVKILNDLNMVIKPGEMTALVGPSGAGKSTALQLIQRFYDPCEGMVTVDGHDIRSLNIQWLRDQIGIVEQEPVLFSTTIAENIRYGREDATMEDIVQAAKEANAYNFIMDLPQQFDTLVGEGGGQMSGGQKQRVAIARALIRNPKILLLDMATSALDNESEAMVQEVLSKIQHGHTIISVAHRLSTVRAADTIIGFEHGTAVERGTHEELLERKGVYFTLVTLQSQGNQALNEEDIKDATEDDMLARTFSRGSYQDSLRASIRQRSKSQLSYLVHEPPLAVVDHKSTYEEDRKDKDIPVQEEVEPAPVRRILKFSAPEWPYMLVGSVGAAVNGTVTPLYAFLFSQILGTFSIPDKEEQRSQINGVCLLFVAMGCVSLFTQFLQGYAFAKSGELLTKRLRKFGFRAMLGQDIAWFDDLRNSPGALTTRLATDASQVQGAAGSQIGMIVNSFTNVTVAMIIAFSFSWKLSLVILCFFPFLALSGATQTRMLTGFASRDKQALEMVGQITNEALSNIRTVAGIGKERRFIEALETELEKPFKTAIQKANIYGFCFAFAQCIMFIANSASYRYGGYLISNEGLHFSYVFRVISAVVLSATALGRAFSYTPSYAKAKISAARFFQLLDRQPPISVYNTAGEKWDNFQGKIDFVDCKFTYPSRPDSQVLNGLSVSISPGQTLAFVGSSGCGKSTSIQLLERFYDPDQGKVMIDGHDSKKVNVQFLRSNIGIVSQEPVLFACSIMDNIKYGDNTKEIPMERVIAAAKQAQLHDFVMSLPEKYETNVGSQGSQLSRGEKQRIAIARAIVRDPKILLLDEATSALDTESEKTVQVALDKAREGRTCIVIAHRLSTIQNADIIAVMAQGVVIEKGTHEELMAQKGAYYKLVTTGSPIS

Work on `CC(C)n1c(/C=C/[C@@H](O)C[C@@H](O)CC(=O)O)c(-c2ccc(F)cc2)c2ccccc21` [CAS_93957-54-1] yielded a Ki [1] of over 10 µM.
In the case of `CC[C@H](C)C(=O)O[C@H]1C[C@H](O)C=C2C=C[C@H](C)[C@H](CC[C@@H](O)C[C@@H](O)CC(=O)O)[C@H]21` [(3R,5R)-7-[(1S,2S,6S,8S,8aR)-6-hydroxy-2-methyl-8-{[(2S)-2-methylbutanoyl]oxy}-1,2,6,7,8,8a-hexahydronaphthalen-1-yl]-3,5-dihydroxyheptanoic acid], the Ki [2] is reported as over 10 µM and the Ki [1] is reported as over 10 µM.
Molecule `CC(C)c1c(C(=O)Nc2ccccc2)c(-c2ccccc2)c(-c2ccc(F)cc2)n1CC[C@@H](O)C[C@@H](O)CC(=O)O` [CI 981] has a Ki [1] of 7.57 µM.
`CCC(C)(C)C(=O)O[C@H]1C[C@@H](C)C=C2C=C[C@H](C)[C@H](CC[C@@H](O)C[C@@H](O)CC(=O)O)[C@H]21` [Simvastatin acid] showed a Ki [2] of over 10 µM and a Ki [1] of over 10 µM.
With `CC(C)c1nc(N(C)S(C)(=O)=O)nc(-c2ccc(F)cc2)c1/C=C/[C@@H](O)C[C@@H](O)CC(=O)O` the Ki [2] was over 10 µM and the Ki [1] was over 10 µM.
Molecule `COCc1c(C(C)C)nc(C(C)C)c(/C=C/[C@@H](O)C[C@@H](O)CC(=O)O)c1-c1ccc(F)cc1` [(3R,5S,6E)-7-[4-(4-fluorophenyl)-5-(methoxymethyl)-2,6-bis(propan-2-yl)pyridin-3-yl]-3,5-dihydroxyhept-6-enoic acid] has a Ki [1] of over 10 µM.
Work on `O=C(O)C[C@H](O)C[C@H](O)/C=C/c1c(C2CC2)nc2ccccc2c1-c1ccc(F)cc1` [CAS_147511-69-1] yielded a Ki [2] of over 10 µM and a Ki [1] of over 10 µM.
In the case of `CC(C)c1c(C(=O)Nc2ccccc2)c(-c2ccccc2)c(-c2ccc(F)cc2)n1CC[C@@H]1C[C@@H](O)CC(=O)O1`, the Ki [2] is reported as over 10 µM and the Ki [1] is reported as over 10 µM.
Molecule `CCC(C)(C)C(=O)O[C@H]1C[C@@H](C)C=C2C=C[C@H](C)[C@H](CC[C@@H]3C[C@@H](O)CC(=O)O3)[C@H]21` [2,2-dimethylbutyric acid, 8-ester with (4R,6R)-6-(2-((1S,2S,6R,8S,8aR)-1,2,6,7,8,8a-hexahydro-8-hydroxy-2,6-dimethyl-1-naphthyl)ethyl)tetrahydro-4-hydroxy-2H-pyran-2-one] has a Ki [1] of over 10 µM.
